From PubChem BioAssay AID1924 (Vanderbilt High Throughput Screening Facility, 2009)

Tested on: Vesicular inhibitory amino acid transporter (Rattus norvegicus) + Acetylcholine receptor subunit alpha (Homo sapiens) + Estrogen receptor (Homo sapiens) + Glucocorticoid receptor (Homo sapiens) + Sodium channel protein type 1 subunit alpha (Rattus norvegicus) + Beta-2 adrenergic receptor (Homo sapiens) + Muscarinic acetylcholine receptor M2 (Homo sapiens) + Beta-1 adrenergic receptor (Homo sapiens) + 5-hydroxytryptamine receptor 1A (Homo sapiens) + Alpha-2A adrenergic receptor (Homo sapiens) + Muscarinic acetylcholine receptor M1 (Homo sapiens) + Interleukin-1 receptor type 1 (Mus musculus) + D(2) dopamine receptor (Homo sapiens) + Androgen receptor (Rattus norvegicus) + Gamma-aminobutyric acid receptor subunit gamma-2 (Rattus norvegicus) + Muscarinic acetylcholine receptor M3 (Homo sapiens) + D(1A) dopamine receptor (Homo sapiens) + D(4) dopamine receptor (Homo sapiens) + Glutamate receptor ionotropic, kainate 1 (Rattus norvegicus) + Sodium-dependent noradrenaline transporter (Homo sapiens) + Endothelin receptor type B (Homo sapiens) + Alpha-1D adrenergic receptor (Homo sapiens) + Endothelin-1 receptor (Homo sapiens) + Substance-P receptor (Homo sapiens) + Neuropeptide Y receptor type 1 (Homo sapiens) + Adenosine receptor A2a (Homo sapiens) + B2 bradykinin receptor (Homo sapiens) + Adenosine receptor A1 (Homo sapiens) + Sodium-dependent serotonin transporter (Homo sapiens) + Neuronal acetylcholine receptor subunit alpha-3 (Homo sapiens) + Histamine H1 receptor (Homo …
Assay: off-target activity at receptors, channels, transporters, profiling panel, selectivity assay for ROMK channel modulator project, biochemical, MDS panel (AID 1924)
Settings: MDS Pharma lead profiling binding panel, at 10 µM, stronger effect = higher value

O=[N+]([O-])c1ccc2nc(COCc3nc4ccc([N+](=O)[O-])cc4[nH]3)[nH]c2c1
inhibition: 75% | inhibition (measured here: Adenosine A1 human binding): 14% | inhibition (measured here: Adenosine A3 human binding): 21% | inhibition (measured here: Adrenergic a2A human binding): 14% | inhibition (measured here: Adrenergic b2 human binding): 9% | inhibition (measured here: Bradykinin B2 human binding): -16% | inhibition (measured here: Calcium channel L-type BTZ rat): 22% | inhibition (measured here: Calcium channel L-type DHP rat): 26% | inhibition (measured here: Calcium channel N-type rat): 0% | inhibition (measured here: Dopamine D1 human binding): -2% | inhibition (measured here: Dopamine D2S human binding): -6% | inhibition (measured here: Dopamine D3 human binding): 1% | inhibition (measured here: Estrogen ER alpha human binding): 1%
